Test results published in patent US11174287B2, “Central nervous system homing peptides and uses thereof” (UNIVERSITY OF MARYLAND, BALTIMORE, priority 2017, dated 2021).
Ends that are not written are not given here.

How the values were obtained:
[1] = tested on: spleen, kidney, liver and lung tissue of EAE mice; assay: Peptide overlay assay, FITC-labeled peptide binding to various organs of EAE mice; parameters: species or system mouse
Source text: (§1) The peptide sequences were synthesized by Genscript (NJ, USA) with at least 95% purity. For fluorescent peptides, fluorescein isothiocyanate (FITC) dye was conjugated at the amino terminus of peptides. The excitation/emission wavelengths for FITC were 490/520 nm.

[2] = tested on: spleen, kidney, liver and lung tissue of normal mice; assay: Peptide overlay assay, FITC-labeled peptide binding in various organs of normal mice; parameters: species or system mouse
Source text: as §1

[3] = tested on: inflamed central nervous system (spinal cord, brain) of EAE mice; assay: NIR imaging of brain and spinal cord after i.v. injection of Cy7-labeled peptide (IVIS Xenogen); type: in vivo, mouse; conditions: for accumulation (NIR signal) in the spinal cord: perfused
Method: The antigen was prepared by emulsifying the myelin oligodendrocyte glycoprotein (MOG) region of 35-55 peptide sequence with at least >98% purity based on mass spectrophotometry (CS Bio, CA, USA) with an equal volume of complete Freund's adjuvant (CFA) containing 5 mg/ml of heat killed desiccated M. tuberculosis-H37RA (Bacto, MI, USA). The suspension was thoroughly mixed to form a thick emulsion. Experimental autoimmune encephalomyelitis (EAE), which closely resembles human multiple sclerosis (MS) was induced in C57BL/6 mice by subcutaneous injection of 200 μg/MOG/mouse. In addition, 2 doses of 200-400 ng each of Pertussis toxin (Calbiochem, CA, USA) were administered i.p. after MOG injection at 0 and 48 hours.
Near Infrared (NIR) Cyanine 7 (Cy7) dye-labeled test peptide CRGGKRSSC (SEQ ID NO:14) or control peptide was injected into the tail vein of diseased (EAE) mice and naive (control) mice. The peptides were allowed to circulate for 24 hours. Thereafter, mice were euthanized, perfused extensively through the heart using PBS. Following that, the brain and spinal cord were removed and scanned for NIR imaging signals using IVIS Xenogen imaging System.

[4] = tested on: spinal cord and brain cerebellum of EAE mice; assay: FITC-labeled peptide binding to spinal cord and brain cerebellum; parameters: species or system mouse; conditions: compared to scrambled peptide CSGRRGKSC
Source text: as §1

Substance	binding of FITC-labeled peptide to spleen, kidney, liver and lung tissue [1]	binding of FITC-labeled peptide to spleen, kidney, liver and lung tissue [2]	homing when injected into the bloodstream ([3]; EAE mice versus normal mice)	binding of FITC-labeled peptide to spinal cord and cerebellum [4]	NIR signal in the cerebellum ([3]; EAE mice versus control mice and control peptide, intensity relative to spinal cord, 24 hours)	accumulation (NIR signal) in the spinal cord ([3]; EAE mice, tail vein injection, 24 hours circulation)	accumulation (NIR signal) in the spinal cord ([3]; naive (control) mice, tail vein injection, 24 hours circulation)	NIR signal in the cerebrum ([3]; tail vein injection, 24 hours circulation)
CRAKGRDAC (cysteine pairing not given here; also: FITC label, site not given here) [CNS-homing peptide containing the RAK motif]	minimal binding except for lung	minimal binding	–	–	–	–	–	–
CRGGKRSSC (cysteine pairing not given here; also: FITC label, site not given here) [CNS-homing peptide from CX7C phage library, denoted "KRSS"]	minimal binding	minimal binding except for spleen	preferentially homed to inflamed spinal cord of EAE mice but not in normal mice	significantly higher binding	–	–	–	–
KRSS-Cy7: Near Infrared cyanine 7 (Cy7) dye-labeled test peptide CRGGKRSSC (SEQ ID NO:14) (cysteine pairing not given here; also: Cy7 dye label, site not given here)	–	–	–	–	much lower in intensity	significantly higher accumulation	barely showed any detectable signal	no signal was detected
